# Columns and labels:
# Assay in all cases: KINOMEscan competition binding
# Conditions in all cases: compound 1.0 µM
# NEK7 (human) = NEK7 (human) (UniProt Q8TDX7)
# MAPK13 (human) = MAPK13 (human) (UniProt O15264)
# CLK1 (human) = CLK1 (human) (UniProt P49759)
# MARK2 (human) = MARK2 (human) (UniProt Q7KZI7)
# ABL2 (human) = ABL2 (human) (UniProt P42684)
# GSK3A (human) = GSK3A (human) (UniProt P49840)
# PLK2 (human) = PLK2 (human) (UniProt Q9NYY3)
# PAK4 (human) = PAK4 (human) (UniProt O96013)
# CDC42BPG (human) = CDC42BPG (human) (UniProt Q6DT37)
# [1] = system: EGFR (human), P00533 [T790M/L858R]
# RIOK3 (human) = RIOK3 (human) (UniProt O14730)
# KIT (human) = KIT (human) (UniProt P10721)
# ULK1 (human) = ULK1 (human) (UniProt O75385)
# [2] = system: ABL1 (human), P00519 [F317L]
# TIE1 (human) = TIE1 (human) (UniProt P35590)
# PIM3 (human) = PIM3 (human) (UniProt Q86V86)
# [3] = system: ABL1 (human), P00519 [F317I]
# NTRK2 (human) = NTRK2 (human) (UniProt Q16620)
# Chain of NTRK2 (human) (Q16620 whole entry, looked up): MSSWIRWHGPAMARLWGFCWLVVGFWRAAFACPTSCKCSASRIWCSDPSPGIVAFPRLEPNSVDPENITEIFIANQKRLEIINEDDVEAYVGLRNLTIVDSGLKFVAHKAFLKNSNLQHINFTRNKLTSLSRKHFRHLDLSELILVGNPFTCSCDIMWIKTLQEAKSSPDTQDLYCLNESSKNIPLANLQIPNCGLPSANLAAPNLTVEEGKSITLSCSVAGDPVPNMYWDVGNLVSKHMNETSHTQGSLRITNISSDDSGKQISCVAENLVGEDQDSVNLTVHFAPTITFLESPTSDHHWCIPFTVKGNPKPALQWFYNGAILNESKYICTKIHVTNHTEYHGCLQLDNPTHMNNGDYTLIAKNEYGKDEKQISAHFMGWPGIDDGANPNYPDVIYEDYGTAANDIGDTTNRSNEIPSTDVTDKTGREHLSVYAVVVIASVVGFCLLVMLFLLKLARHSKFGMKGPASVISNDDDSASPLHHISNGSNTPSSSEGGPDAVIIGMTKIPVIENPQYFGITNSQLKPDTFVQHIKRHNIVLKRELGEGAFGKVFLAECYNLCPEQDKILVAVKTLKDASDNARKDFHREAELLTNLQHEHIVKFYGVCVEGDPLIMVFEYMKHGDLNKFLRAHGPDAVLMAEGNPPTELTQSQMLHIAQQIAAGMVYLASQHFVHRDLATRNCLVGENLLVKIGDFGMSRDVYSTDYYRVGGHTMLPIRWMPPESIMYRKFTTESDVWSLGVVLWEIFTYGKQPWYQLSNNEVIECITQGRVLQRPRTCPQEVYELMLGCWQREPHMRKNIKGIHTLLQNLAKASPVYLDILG
# MST1R (human) = MST1R (human) (UniProt Q04912)
# PDPK1 (human) = PDPK1 (human) (UniProt O15530)
# PLK1 (human) = PLK1 (human) (UniProt P53350)
# INSR (human) = INSR (human) (UniProt P06213)
# CAMK2G (human) = CAMK2G (human) (UniProt Q13555)
# MYLK (human) = MYLK (human) (UniProt Q15746)
# NEK2 (human) = NEK2 (human) (UniProt P51955)
# Chain of NEK2 (human) (P51955 whole entry, looked up): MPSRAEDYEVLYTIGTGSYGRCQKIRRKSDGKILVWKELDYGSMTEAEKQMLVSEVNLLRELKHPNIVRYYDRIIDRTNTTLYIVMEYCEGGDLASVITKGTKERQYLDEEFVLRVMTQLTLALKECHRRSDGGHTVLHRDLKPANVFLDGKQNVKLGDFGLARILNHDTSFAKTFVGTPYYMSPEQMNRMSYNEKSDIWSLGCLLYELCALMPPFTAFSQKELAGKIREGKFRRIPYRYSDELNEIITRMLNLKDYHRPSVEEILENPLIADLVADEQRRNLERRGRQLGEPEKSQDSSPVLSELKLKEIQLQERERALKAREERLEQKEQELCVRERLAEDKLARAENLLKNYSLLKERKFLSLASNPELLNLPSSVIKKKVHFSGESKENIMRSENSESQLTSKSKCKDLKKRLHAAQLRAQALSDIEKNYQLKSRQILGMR
# CSNK1G3 (human) = CSNK1G3 (human) (UniProt Q9Y6M4)
# Chain of CSNK1G3 (human) (Q9Y6M4 whole entry, looked up): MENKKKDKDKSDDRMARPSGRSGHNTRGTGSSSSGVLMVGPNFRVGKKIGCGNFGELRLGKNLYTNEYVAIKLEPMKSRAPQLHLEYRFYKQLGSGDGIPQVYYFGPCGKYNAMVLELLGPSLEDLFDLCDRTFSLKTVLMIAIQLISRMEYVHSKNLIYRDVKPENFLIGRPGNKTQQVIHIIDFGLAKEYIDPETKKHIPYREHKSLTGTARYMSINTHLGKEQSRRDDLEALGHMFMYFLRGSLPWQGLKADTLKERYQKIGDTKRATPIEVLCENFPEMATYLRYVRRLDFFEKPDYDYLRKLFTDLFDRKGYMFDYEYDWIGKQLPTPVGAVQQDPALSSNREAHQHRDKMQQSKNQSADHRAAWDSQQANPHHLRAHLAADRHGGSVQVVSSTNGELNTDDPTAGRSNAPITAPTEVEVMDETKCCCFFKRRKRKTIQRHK
# [4] = system: ABL1 (human), P00519 [Q252H]
# MARK3 (human) = MARK3 (human) (UniProt P27448)
# AKT3 (human) = AKT3 (human) (UniProt Q9Y243)
# ACVR1 (human) = ACVR1 (human) (UniProt Q04771)
# STK17A (human) = STK17A (human) (UniProt Q9UEE5)
# RPS6KA2 KD1 (human) = RPS6KA2 KD1 (human) (UniProt Q15349)
# [5] = target: TYK2 JH2 pseudokinase (human) (UniProt P29597)
# Chain of TYK2 JH2 pseudokinase (human) (P29597 whole entry, looked up): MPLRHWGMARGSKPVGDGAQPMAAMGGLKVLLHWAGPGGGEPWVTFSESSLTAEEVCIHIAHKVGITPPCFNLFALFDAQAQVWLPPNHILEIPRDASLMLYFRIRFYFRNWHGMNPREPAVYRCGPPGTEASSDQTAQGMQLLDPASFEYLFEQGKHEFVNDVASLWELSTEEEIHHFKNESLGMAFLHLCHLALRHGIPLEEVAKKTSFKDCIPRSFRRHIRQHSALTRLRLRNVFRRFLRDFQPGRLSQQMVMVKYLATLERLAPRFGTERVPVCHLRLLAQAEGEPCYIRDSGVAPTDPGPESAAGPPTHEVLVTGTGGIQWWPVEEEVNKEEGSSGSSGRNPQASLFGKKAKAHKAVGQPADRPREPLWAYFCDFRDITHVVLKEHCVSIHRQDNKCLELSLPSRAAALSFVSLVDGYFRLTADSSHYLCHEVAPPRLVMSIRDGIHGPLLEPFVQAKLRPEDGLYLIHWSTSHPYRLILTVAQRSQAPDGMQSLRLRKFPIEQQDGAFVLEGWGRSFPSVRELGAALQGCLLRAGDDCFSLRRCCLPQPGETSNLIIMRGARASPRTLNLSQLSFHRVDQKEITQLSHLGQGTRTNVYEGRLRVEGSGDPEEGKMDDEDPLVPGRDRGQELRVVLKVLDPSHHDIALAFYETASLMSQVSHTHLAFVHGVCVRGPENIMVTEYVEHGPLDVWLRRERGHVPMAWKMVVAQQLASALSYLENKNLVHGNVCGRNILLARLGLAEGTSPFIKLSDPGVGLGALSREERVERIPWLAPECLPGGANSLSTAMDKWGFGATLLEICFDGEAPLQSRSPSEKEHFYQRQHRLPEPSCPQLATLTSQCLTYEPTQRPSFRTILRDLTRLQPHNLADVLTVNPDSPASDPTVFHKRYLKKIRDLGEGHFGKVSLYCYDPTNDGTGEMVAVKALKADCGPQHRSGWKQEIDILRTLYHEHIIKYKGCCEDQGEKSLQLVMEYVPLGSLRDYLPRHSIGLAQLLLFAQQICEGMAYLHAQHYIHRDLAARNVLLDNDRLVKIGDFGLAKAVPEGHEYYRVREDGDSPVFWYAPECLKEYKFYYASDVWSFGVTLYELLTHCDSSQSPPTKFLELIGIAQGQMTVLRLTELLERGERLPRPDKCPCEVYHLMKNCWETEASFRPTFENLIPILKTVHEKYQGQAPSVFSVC
# BTK (human) = BTK (human) (UniProt Q06187)
# NUAK1 (human) = NUAK1 (human) (UniProt O60285)
# ANKK1 (human) = ANKK1 (human) (UniProt Q8NFD2)
# [6] = system: ABL1 (human), P00519 [Y253F]
# PRKD2 (human) = PRKD2 (human) (UniProt Q9BZL6)
# Chain of PRKD2 (human) (Q9BZL6 whole entry, looked up): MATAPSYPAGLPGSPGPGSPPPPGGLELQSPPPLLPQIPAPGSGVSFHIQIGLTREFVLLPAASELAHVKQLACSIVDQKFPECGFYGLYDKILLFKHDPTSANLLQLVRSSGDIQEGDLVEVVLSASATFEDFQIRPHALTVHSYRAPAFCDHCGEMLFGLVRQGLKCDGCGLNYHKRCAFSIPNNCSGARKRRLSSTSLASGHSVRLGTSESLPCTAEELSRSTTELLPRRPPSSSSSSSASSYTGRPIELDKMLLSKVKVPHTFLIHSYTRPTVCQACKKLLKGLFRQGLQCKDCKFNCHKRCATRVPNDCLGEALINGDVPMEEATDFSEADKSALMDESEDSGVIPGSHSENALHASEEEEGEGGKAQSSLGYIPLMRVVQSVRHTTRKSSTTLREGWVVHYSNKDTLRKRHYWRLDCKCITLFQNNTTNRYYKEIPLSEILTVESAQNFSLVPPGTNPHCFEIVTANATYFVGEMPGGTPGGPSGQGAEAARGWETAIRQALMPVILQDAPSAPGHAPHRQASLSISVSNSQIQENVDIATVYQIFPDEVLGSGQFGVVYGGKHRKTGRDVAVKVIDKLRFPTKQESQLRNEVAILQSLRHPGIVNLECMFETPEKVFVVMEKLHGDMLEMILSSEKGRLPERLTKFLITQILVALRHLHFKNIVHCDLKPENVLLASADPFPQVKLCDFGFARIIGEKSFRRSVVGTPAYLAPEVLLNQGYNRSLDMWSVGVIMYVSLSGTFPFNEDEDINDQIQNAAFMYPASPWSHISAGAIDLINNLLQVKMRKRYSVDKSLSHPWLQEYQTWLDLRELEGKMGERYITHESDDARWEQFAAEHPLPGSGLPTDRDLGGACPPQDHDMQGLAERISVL
# HCK (human) = HCK (human) (UniProt P08631)
# ERBB4 (human) = ERBB4 (human) (UniProt Q15303)
# Chain of ERBB4 (human) (Q15303 whole entry, looked up): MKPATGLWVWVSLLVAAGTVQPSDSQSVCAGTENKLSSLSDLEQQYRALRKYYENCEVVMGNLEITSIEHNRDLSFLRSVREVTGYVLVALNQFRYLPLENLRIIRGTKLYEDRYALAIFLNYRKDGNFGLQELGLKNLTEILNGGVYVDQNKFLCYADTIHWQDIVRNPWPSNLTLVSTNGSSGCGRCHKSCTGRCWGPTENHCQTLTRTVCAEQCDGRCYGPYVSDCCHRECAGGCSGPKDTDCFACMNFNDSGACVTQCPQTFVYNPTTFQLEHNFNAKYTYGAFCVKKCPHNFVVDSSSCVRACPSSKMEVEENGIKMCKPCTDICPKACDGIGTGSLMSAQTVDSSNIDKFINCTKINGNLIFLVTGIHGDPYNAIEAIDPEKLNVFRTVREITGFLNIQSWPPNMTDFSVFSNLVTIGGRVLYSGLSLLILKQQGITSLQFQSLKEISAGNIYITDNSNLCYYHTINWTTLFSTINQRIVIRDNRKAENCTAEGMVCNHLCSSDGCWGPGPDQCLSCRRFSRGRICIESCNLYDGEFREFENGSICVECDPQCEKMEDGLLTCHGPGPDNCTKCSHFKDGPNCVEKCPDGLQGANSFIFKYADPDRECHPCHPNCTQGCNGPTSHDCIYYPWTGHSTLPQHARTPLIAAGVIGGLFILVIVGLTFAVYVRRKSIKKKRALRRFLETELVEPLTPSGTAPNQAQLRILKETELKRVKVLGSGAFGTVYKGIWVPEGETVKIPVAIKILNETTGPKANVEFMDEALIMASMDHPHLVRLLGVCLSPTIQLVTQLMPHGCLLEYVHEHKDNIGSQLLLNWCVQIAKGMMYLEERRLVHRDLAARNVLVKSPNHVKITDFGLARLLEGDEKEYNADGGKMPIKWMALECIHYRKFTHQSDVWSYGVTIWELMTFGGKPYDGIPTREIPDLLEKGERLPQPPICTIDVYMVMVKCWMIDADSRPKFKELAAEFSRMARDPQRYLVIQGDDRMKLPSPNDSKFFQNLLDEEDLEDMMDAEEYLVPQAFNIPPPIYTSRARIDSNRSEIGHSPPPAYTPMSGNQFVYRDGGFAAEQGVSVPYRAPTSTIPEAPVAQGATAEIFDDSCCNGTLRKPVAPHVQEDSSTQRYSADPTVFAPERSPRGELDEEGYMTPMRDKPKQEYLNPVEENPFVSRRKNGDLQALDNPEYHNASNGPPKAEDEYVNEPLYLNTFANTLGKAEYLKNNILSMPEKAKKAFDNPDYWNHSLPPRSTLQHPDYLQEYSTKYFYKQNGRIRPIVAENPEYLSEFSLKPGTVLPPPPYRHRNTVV
structure (smiles),measurement,setting,value
Nc1cc(C(F)(F)F)c(-c2cc(N3CCOCC3)nc(N3CCOCC3)n2)cn1,inhibition of binding,NEK7 (human),0%
same,inhibition of binding,MAPK13 (human),0%
same,inhibition of binding,CLK1 (human),58%
same,inhibition of binding,MARK2 (human),0%
same,inhibition of binding,ABL2 (human),0%
same,inhibition of binding,GSK3A (human),42%
same,inhibition of binding,PLK2 (human),0%
same,inhibition of binding,PAK4 (human),13%
same,inhibition of binding,CDC42BPG (human),0%
same,inhibition of binding,[1],0%
same,inhibition of binding,RIOK3 (human),0%
same,inhibition of binding,KIT (human),0%
same,inhibition of binding,ULK1 (human),0%
same,inhibition of binding,[2],0%
same,inhibition of binding,TIE1 (human),0%
same,inhibition of binding,PIM3 (human),5%
same,inhibition of binding,[3],41%
same,inhibition of binding,NTRK2 (human),0%
same,inhibition of binding,MST1R (human),0%
same,inhibition of binding,PDPK1 (human),0%
same,inhibition of binding,PLK1 (human),30%
same,inhibition of binding,INSR (human),30%
same,inhibition of binding,CAMK2G (human),0%
same,inhibition of binding,MYLK (human),12%
same,inhibition of binding,NEK2 (human),0%
same,inhibition of binding,CSNK1G3 (human),20%
same,inhibition of binding,[4],0%
same,inhibition of binding,MARK3 (human),0%
same,inhibition of binding,AKT3 (human),0%
same,inhibition of binding,ACVR1 (human),0%
same,inhibition of binding,STK17A (human),0%
same,inhibition of binding,RPS6KA2 KD1 (human),2%
same,inhibition of binding,[5],12%
same,inhibition of binding,BTK (human),6%
same,inhibition of binding,NUAK1 (human),42%
same,inhibition of binding,ANKK1 (human),0%
same,inhibition of binding,[6],0%
same,inhibition of binding,PRKD2 (human),38%
same,inhibition of binding,HCK (human),0%
same,inhibition of binding,ERBB4 (human),7%
